Test results from US10561638B2, “Methods for treating dependence” (Biotie Therapies, Inc., priority 2007, dated 2020).

Columns and labels:
[1] = test system: tissue norepinephrine and dopamine levels; assay: Tissue catecholamines in SHRs after single dose (dose response, time course); format: in vivo, spontaneously hypertensive rats; details: 6.2 mg/kg oral or i.v., 0.5 to 4 hours
[2] = molecular target: T1, human dopamine β-hydroxylase (Homo sapiens, UniProt P09172); assay: DBH assay, conversion of tyramine to octopamine; format: biochemical
T1 construct: Human secretory DBH was purified from the culture medium of the neuroblastoma cell line SK-N-SH; endogenous in cells; host or cells: SK-N-SH neuroblastoma cells (enzyme secreted into the culture medium, purified on lentil lectin-sepharose)
T1 sequence (P09172 40-617 limits assumed): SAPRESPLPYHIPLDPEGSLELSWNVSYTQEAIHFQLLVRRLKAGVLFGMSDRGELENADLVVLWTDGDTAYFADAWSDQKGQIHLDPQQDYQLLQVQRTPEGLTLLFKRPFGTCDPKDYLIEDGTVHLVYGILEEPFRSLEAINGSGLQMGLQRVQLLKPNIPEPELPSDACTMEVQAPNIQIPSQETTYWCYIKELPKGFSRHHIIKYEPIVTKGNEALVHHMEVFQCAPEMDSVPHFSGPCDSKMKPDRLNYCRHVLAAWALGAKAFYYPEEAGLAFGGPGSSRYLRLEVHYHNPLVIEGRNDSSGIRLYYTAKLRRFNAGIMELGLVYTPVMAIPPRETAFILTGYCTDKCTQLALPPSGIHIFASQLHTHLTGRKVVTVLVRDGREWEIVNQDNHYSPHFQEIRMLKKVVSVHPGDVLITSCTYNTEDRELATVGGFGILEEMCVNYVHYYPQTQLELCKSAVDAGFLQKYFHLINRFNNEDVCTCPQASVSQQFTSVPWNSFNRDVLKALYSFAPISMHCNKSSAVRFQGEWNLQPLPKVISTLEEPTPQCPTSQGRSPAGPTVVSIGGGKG
Experimental: Bovine and human dopamine β-hydroxylase activity were assayed by measuring the conversion of tyramine to octopamine. Bovine adrenal dopamine β-hydroxylase was obtained from Sigma Chemicals (St Louis, Mo., USA) whereas human dopamine β-hydroxylase was purified from the culture medium of the neuroblastoma cell line SK-N-SH. The assay was performed at pH 5.2 and 32° C. in a medium containing 0.125 M NaAc, 10 mM fumarate, 0.5-2 μM CuSO4, 0.1 mg·ml^−1 catalase, 0.1 mM tyramine and 4 mM ascorbate. In a typical assay, 0.5-1 milliunits of enzyme were added to the reaction mixture and, subsequently, a substrate mixture containing catalase, tyramine and ascorbate was added to initiate the reaction (final volume of 200 μl). Samples were incubated with or without the appropriate concentration of nepicastat or Compound B at 37° C. for 30 to 40 minutes. The reaction was quenched by the stop solution containing 25 mM EDTA and 240 μM 3-hydroxytyramine (internal standard). The samples were analyzed for octopamine by reverse phase high pressure liquid chromatography (HPLC) using ultraviolet-detection at […]. The HPLC chromatography run was carried out at the flow rate of 1 ml·min^−1 using a LiChroCART 125-4 RP-18 column and isocratic elution with 10 mM acidic acid, 10 mM 1-heptane sulfonic acid, 12 mM tetrabutyl ammonium phosphate and 10% methanol. The remaining percent activity was calculated based on controls, corrected using internal standards and fitted to a non-linear four-parameter concentration-response curve.
DBH activity was assayed by measuring the conversion of tyramine to octopamine. Bovine DBH from adrenal glands was obtained from Sigma Chemical Co (St Louis, Mo.). Human secretory DBH was purified from the culture medium of the neuroblastoma cell line SK-N-SH. The assay was performed at pH 5.2 and 32° C. in 0.125 M NaOAc, 10 mM fumarate, 0.5-2 μM CUSO4, 0.1 mg/mL catalase, 0.1 mM tyramine and 4 mM ascorbate. In a typical assay, 0.5-1 milliunits of enzyme were added to the reaction mixture and then a substrate mixture containing catalase, tyramine and ascorbate was added to initiate the reaction (final volume of 200 μL). Samples were incubated with or without the appropriate concentration of the inhibitor at 37° C. for 30-40 min. The reaction was quenched by the stop solution containing 25 mM EDTA and 240 μM 3-hydroxytyramine (internal standard). The samples were analyzed for octopamine by reverse phase HPLC using UV detection at […]. The remaining percent activity was calculated based on controls (without inhibitor), corrected using internal standards and fitted to a non-linear 4-parameter concentration-response curve to obtain IC50 values.
Bovine DBH from adrenal glands was obtained from Sigma Chemicals (St. Louis, Mo.). Human secretory DBH was purified from the culture medium of the neuroblastoma cell line SK-N-SH and was used to obtain the inhibition data. A lentil lectin-sepharose column containing 25 ml gel was prepared and equilibrated with 50 mM KH2PO4, pH 6.5, 0.5 M NaCl. The column was eluted with 35 ml of 10% methyl a, D-mannopyranoside in 50 mM KH2PO4, pH 6.5, 0.5 M NaCl at 0.5 ml/min. Fraction containing most enzymatic activities were pooled and concentrated with an Amicon stirred cell using a YM30 membrane. Methyl a, D-mannopyranoside was removed by buffer exchange with in 50 mM KH2PO4, pH 6.5, 0.1M NaCl. The concentrated enzyme solution was aliquoted and stored at −25° C.
An HPLC assay was used to measure DBH activity using tyramine and ascorbate as substrates. […]

Compound | mesenteric artery catecholamines [1] | selectivity for dopamine-β-hydroxylase over the other enzymes studied [2] [fold] | potency of nepicastat relative to SKF-102698 ([2]; human DBH) [fold] | potency of nepicastat relative to SKF-102698 ([2]; human and bovine DBH) | potency of nepicastat relative to the R-enantiomer ([2]; human and bovine DBH) | potency of nepicastat relative to Compound B ([2]; human enzyme) [fold] | IC50 ([2]; 0.1 mM tyramine, 4 mM ascorbate, pH 5.2) [nM]
Cl.NCc1c[nH]c(=S)n1[C@H]1CCc2c(F)cc(F)cc2C1 [nepicastat, (S)-5-Aminomethyl-1-(5,7-difluoro-1,2,3,4-tetrahydronaphth-2-yl)-2,3-dihydro-2-thioxo-1H-imidazole hydrochloride] | significantly decreased norepinephrine and increased dopamine and the dopamine/norepinephrine ratio | > 1000 | 9 | 8-9 fold | 2-3 fold | 2 | 
Fc1cc(F)cc(Cn2cc[nH]c2=S)c1 [SKF-102698, reference compound] |  |  |  |  |  |  | 85 ± 3.7
